According to a melting point compilation (Tetko et al.; mined from patent text by program, amines drawn as free bases though some values may be those of a salt):

SMILES | melting point [°C]
COc1cc(O)c2c(=O)c(OC)c(-c3ccc(OC(C)=O)c(OC)c3)oc2c1 | 168 to 169
O=[N+]([O-])c1cnc(Sc2n[nH]c(-c3cccs3)n2)s1 | 179 to 181
CC(C)CC(NC(=O)C1CCCCC1NC(=O)OCc1ccccc1)C(N)=O (stereo not given) | 188 to 190
O=S(=O)(Nc1ncnc(OCCO)c1-c1ccc(Cl)cc1)c1ccc(C(F)(F)F)cc1 | 160 to 162
Cn1ncc2nn(-c3cccc(C(F)(F)F)c3)c(=O)cc21 | 160 to 163
CC(C(=O)NCC(COC(=O)C(C)(C)C)Cc1ccc(C(C)(C)C)cc1)c1ccc(NS(C)(=O)=O)c(Cl)c1 (stereo not given) | 61 to 63
COC(=O)c1ccc2c(c1)CCC(CCN1CCC(c3ccccc3)CC1)C2=O (stereo not given) | 110 to 112
COc1cc(Br)ccc1N | 56.5 to 58
COc1cc(NS(=O)(=O)c2cccc(C(F)(F)F)c2)cc(OC)c1 | 78 to 81
O=C(Nc1ccc2nc(CN3CCCC3)ccc2c1)c1ccc(-c2ccccc2)cc1 | 181 to 183
Cc1ccc(S(=O)(=O)N=CNCc2ccc(-c3csc(N=C(N)N)n3)o2)cc1 | 141 to 142
O=CNc1ccc(-c2c[nH]cn2)cc1 | 108 to 109
O=C(O)c1ccc(-n2c(SCc3ccc(Cl)cc3)nc3ccc(Cl)cc32)cc1 | 265 to 266
COc1ccc(-c2nc(CC(=O)Cc3ccc(OC(C)=O)c(OC(C)=O)c3)cs2)cc1OC | 128
CC(=O)N1CCN(c2ccc([N+](=O)[O-])c(C)c2)CC1 | 133 to 137
Cc1cnc2n1-c1ccc(Cl)cc1C(c1ccccc1Cl)=NC2 | 148 to 149
CC(=O)NC(=N)NCC1CC2c3cccc4[nH]cc(c34)CC2N(C)C1 (stereo not given) | 218 to 220
CCCOc1ccc(S(N)(=O)=O)cc1C1=NC(=O)C2=NC=NC2=N1 | 276 to 278
COc1cc(C(=O)Nc2c(C)cc3cn(CC(F)(F)F)nc3c2C(=O)NC(C)C)n(-c2ncccc2Cl)n1 | 178 to 181
COc1cc(CSCCC(=O)SCc2cc(OC)c(OC)c(OC)c2)cc(OC)c1OC | 88 to 89

SMILES | melting point [°C]
COc1cc(-c2cn(Cc3ccccc3)c(=O)c3ccccc23)cc(OC)c1OC | 166 to 168
CCOC(=O)c1ncn2c1[C@@H]1CCN1C(=O)c1cc(F)ccc1-2 | 226 to 227
N=C(N)c1ccc(-c2ccc(N3CCN(CCC(=O)O)C3=O)cc2)cc1 | > 200
CN1CCN(c2ccc([N+](=O)[O-])cc2)S1(=O)=O | 155 to 163
CN1C(=O)[C@H](NC(=O)/C=C/c2ccc(Cl)c(Cl)c2)N=C(c2ccccc2)c2ccccc21 | 145 to 147
CCc1c(C(=O)OC(C)C)ncc2[nH]c3ccc4ncc(C)nc4c3c12 | 215 to 216
CCCC=C(OC(C)=O)C(=Cc1ccc(Cl)cc1)n1cncn1 | 112 to 113
Oc1cccc(C=C2c3ccccc3Cc3ccccc32)c1 | 196
CNS(=O)(=O)c1ccc(C2=NC(C)(C)Cc3cc(OC)c4c(c32)CC(C)(C)O4)cc1 | 146 to 148
O=C(O)c1csc(-c2ncccc2O)n1 | > 300
Nc1nc(N)c(-c2cc(Cl)cc(Cl)c2Cl)nc1Br | 222 to 224
COC(=O)NCc1nc(-c2cc(C(C)(C)C)c(O)c(C(C)(C)C)c2)cs1 | 94 to 95.9
CN1CCC(OC2c3cccc(Cc4ccccc4)c3CCn3cc(-c4ccccc4)nc32)CC1 (stereo not given) | 66
O=C1OC(Cc2ccccc2)CN1c1ccccc1 (stereo not given) | 90
O=C(O)C12CC(c3ccccc31)c1ccccc12 | 200
O=[N+]([O-])c1ccc(F)c(CNCCO)c1 | 93 to 94
CCOC(=O)c1ccc(-c2nc(COc3ccc(COc4nn(-c5ccccc5)cc4C=O)cc3OC)c(C)o2)s1 | 156 to 157
CCC(CC)C(NS(=O)(=O)c1ccc(Cl)s1)C(C)O (stereo not given) | 95 to 98
CCOC(=O)c1c(-c2ccccc2)c2cc(Cl)ccc2[nH]c1=O | 223 to 224
NC(=O)c1cc(CO)ccc1[N+](=O)[O-] | 143 to 145

SMILES | melting point [°C]
CC(C)(C)C(=O)N(O)Cc1ccccc1Cl | 100 to 102
CCCCCCCOc1ccc(C2CC(CCCCCC)C(=O)O2)cc1 (stereo not given) | 45.9 to 47
CC(C)CSCc1c(-c2ccc(S(C)(=O)=O)cc2)cnn(-c2ccc(F)cc2)c1=O | 45 to 60
Cc1ccc(-c2cc(C(F)(F)F)n3ncc(-c4cccnc4)c3n2)cc1C(F)(F)F | 182
CCCc1nn(C)c2c(=O)[nH]c(-c3cc(/C=C/C(=O)N(C)C)ccc3OCC)nc12 | 219 to 221
Brc1cccc(-c2cn([C@H]3CN4CCC3CC4)nn2)c1 | 188
O=C1c2ccccc2C(=O)N1CC(=O)N1c2ccccc2N(Cc2ccccc2)C(=O)[C@H]2CCCC[C@H]21 (relative stereo) | 241 to 242
CCCCCCCCc1ccc(N(c2ccc(CCCCCCCC)cc2)C2(c3ccc(N(CC)CC)cc3C)OC(=O)c3nccnc32)cc1 (stereo not given) | 180 to 187
Cc1cc(O)c(F)cc1[N+](=O)[O-] | 110 to 112
O=C(NN1CCCN(C(=O)OCc2ccccc2)CC1)c1ccc(F)cc1 | 116 to 118
CCOC(=O)c1cccc(C=Cc2ccccc2)c1 | 82
COC(=O)/C(C)=C1\CN2C(=O)CC2O1 (stereo not given) | 90 to 91
OC(Cn1ccnc1)c1cccnc1 (stereo not given) | 119 to 121
CCCCOc1ccc(S(=O)(=O)C2(C(=O)O)CCN(Cc3ccc(Cl)c(Cl)c3)CC2)cc1 | 257
NS(=O)(=O)c1cc2c(s1)SCCNC2=O | > 270
CN1CCc2c(cccc2NC(=O)c2ccccc2Br)C1 | 206 to 208
N#Cc1ccc(C(F)(F)F)cc1NN=Nc1ccccc1 | 139 to 141
Cc1oc(-c2ccccc2)nc1COc1ccc(CO)cc1 | 128 to 129
CCCCCCCCCC(=O)Nc1ccc(S(=O)(=O)Nc2nnc(C(C)(C)C)s2)cc1 | 156 to 157

The remaining lines, values ahead:

melting point [°C] | SMILES
259 to 263 | CN1CCN(c2ccnc3c(NC(=O)c4c(Cl)cccc4Cl)ccc(Cl)c23)C1=O
63 to 65 | CCCc1c(OCCCOc2cc(NC(=O)c3nnn[nH]3)c(C)cc2Br)ccc(C(C)=O)c1O
113 to 115 | COc1cc(CNC(=O)c2ccccc2)cc(OC)c1OC
78 to 80 | c1ccc(-c2cc3ccccc3n2-c2ccccc2)cc1
91 to 94 | O=C(O)CCCCCCCn1ccnc1
155 | NS(=O)(=O)c1cc(S(N)(=O)=O)c(C(Cl)=C(Cl)Cl)cc1NCc1ccco1
47 to 48 | COc1c(C)c(C)c(OC)c(CC[C@@]2(C)CO2)c1C
89 to 90 | CCCCCC(CC(=O)Nc1cc(C(N)=O)ccc1C(C)(C)C)c1cccc(OC)c1OC (stereo not given)
150 to 151 | Cc1ccc(S(=O)(=O)OCCC2C3=C(CC=CC3)CCc3ccccc32)cc1 (stereo not given)
195 to 196 | COc1ccc(C2=C(c3c4n(c5ccccc35)CCC(CN)C4)C(=O)NC2=O)cc1 (stereo not given)
193 to 194 | FC(F)(F)c1cccc(Nc2nc3ccccc3o2)c1
130 to 132 | O=c1ccc(OS(=O)(=O)C(F)(F)F)n[nH]1
106 to 108 | ClCCOc1ccc(Cl)c2[nH]cc(Cl)c12
161 to 163 | CSc1ccc(/C=C(\NC(=O)c2ccc(OCC(C)C)cc2)C(=O)NCCO)cc1
95 to 97 | CCOC(=O)CCCN(C(=O)CCCN(C(=O)c1ccc(Cl)cc1)c1c(C)cccc1C)c1c(C)cccc1C
149 to 150 | CN(c1cccc2cc(C3=NCC(C)(CCO)S3)[nH]c12)S(=O)(=O)c1cccs1 (stereo not given)
40.5 to 45 | CCOC(=O)[C@H]1O[C@@H]1C(=O)N[C@H](COCC(C)C)C(C)C
126 to 129 | CCCCCCCCNC(=O)[C@@H]1C[C@H]1c1ccc([N+](=O)[O-])cc1 (relative stereo)
234 to 235 | S=c1ncc2ccccc2[nH]1
207 to 208 | CC1(C)CCC(C)(C)c2cc(CC#Cc3ccc(C(N)=O)cc3)ccc21
148 to 150 | CN(C)CC1(C2(O)CCCCC2)Cc2cc3ccn(C)c3cc21 (stereo not given)

melting point [°C] | SMILES
60 to 63 | CC(C)(CF)C(=O)C(Oc1ccc(Cl)cc1)n1cncn1 (stereo not given)
194 | CC(=O)NCc1c(C)cc(CO)cc1C
189 to 190 | CC(C)(C)Sc1c(CC(C)(C)C(=O)O)n(Cc2ccc(Cl)cc2)c2ccc(OCc3ccccn3)cc12
85 | O=C(c1ccccc1)c1ccccc1Nc1ncccc1[N+](=O)[O-]
55 to 56 | CC(CN1CCOCC1)N1CCN(c2ccccc2)CC1 (stereo not given)
210 to 215 | CN1C(=O)C=C(c2ccc3c(c2)OCO3)C1=O
60 to 62 | CCOC(=O)n1nc(N(C)C)c2c(Cl)cccc21
240 to 242 | O=C1Nc2ccc(-c3ccc(C=NO)c(F)c3)cc2C12CCCCC2
110 | COC(=O)CC(Nc1ccccc1)c1ccccc1 (stereo not given)
150 | CC1Cn2c(=O)[nH]c3cccc(c32)CN1CCc1ccccc1 (stereo not given)
194 to 198 | O=C1Nc2ccccc2C(c2ccc(Cl)cc2)CC1Br (stereo not given)
128 to 130 | CCC(CC)=NOC(=O)c1cc(-n2c(=O)cc(C(F)(F)F)n(C)c2=O)c(F)cc1Cl
152 to 154 | CNC(=S)NC(c1ccccc1)c1ccccc1
175 | O=S1(=O)c2ccccc2C(c2ccccc2)N1CCN1CCC(Cc2c[nH]c3ccc(F)cc23)CC1 (stereo not given)
209 to 210 | CC(=O)c1cccc(-c2c(C)c(NC(=O)CC(C)(C)C)c(C)c3c2OCC3c2ccc(C(C)C)cc2)c1 (stereo not given)
214 to 215 | O=c1c2cc(O)cc(O)c2cc2n1CCCC2
143 | CCNc1cc(C)c(S(=O)(=O)C[N+](=O)[O-])c(C)c1
92 to 94 | CC1=C(C(=O)Nc2cccc(C(=O)OC(C)C)c2)SCCO1
54 to 55 | CCOC(=O)C(C(=O)OCC)c1ccc(Br)cc1[N+](=O)[O-]
107 to 110 | COc1ccc2c3c(c(=O)oc2c1)CN(Cc1cccnc1)CC3
